Key:
[1] = biological target: 3',5'-cyclic-AMP phosphodiesterase 4D (Homo sapiens, UniProt Q08499); format: functional
[2] = biological target: T1, Prostaglandin G/H synthase 1 (Rattus norvegicus, UniProt Q63921); format: functional
T1 sequence (Q63921 whole entry): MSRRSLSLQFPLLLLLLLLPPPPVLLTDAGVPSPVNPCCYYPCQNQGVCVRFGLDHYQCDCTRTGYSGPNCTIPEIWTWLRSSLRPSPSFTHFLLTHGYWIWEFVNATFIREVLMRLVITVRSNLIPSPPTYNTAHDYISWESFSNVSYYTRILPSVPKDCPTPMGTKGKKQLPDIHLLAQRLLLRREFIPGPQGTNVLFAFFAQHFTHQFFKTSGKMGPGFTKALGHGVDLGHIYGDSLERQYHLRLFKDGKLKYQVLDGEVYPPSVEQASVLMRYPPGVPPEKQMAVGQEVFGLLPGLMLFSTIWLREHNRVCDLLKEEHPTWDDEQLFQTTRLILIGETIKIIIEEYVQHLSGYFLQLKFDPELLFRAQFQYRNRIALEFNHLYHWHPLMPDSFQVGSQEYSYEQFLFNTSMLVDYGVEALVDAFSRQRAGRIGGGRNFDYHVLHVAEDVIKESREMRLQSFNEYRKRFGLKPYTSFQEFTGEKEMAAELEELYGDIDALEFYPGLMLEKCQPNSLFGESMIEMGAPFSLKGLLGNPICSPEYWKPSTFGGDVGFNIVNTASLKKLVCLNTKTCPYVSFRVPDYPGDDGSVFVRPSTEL

[3] = biological target: Voltage-gated inwardly rectifying potassium channel KCNH2 (Homo sapiens, UniProt Q12809); format: functional; details: read-out: AC50
Sequence of Voltage-gated inwardly rectifying potassium channel KCNH2 (Q12809 whole entry): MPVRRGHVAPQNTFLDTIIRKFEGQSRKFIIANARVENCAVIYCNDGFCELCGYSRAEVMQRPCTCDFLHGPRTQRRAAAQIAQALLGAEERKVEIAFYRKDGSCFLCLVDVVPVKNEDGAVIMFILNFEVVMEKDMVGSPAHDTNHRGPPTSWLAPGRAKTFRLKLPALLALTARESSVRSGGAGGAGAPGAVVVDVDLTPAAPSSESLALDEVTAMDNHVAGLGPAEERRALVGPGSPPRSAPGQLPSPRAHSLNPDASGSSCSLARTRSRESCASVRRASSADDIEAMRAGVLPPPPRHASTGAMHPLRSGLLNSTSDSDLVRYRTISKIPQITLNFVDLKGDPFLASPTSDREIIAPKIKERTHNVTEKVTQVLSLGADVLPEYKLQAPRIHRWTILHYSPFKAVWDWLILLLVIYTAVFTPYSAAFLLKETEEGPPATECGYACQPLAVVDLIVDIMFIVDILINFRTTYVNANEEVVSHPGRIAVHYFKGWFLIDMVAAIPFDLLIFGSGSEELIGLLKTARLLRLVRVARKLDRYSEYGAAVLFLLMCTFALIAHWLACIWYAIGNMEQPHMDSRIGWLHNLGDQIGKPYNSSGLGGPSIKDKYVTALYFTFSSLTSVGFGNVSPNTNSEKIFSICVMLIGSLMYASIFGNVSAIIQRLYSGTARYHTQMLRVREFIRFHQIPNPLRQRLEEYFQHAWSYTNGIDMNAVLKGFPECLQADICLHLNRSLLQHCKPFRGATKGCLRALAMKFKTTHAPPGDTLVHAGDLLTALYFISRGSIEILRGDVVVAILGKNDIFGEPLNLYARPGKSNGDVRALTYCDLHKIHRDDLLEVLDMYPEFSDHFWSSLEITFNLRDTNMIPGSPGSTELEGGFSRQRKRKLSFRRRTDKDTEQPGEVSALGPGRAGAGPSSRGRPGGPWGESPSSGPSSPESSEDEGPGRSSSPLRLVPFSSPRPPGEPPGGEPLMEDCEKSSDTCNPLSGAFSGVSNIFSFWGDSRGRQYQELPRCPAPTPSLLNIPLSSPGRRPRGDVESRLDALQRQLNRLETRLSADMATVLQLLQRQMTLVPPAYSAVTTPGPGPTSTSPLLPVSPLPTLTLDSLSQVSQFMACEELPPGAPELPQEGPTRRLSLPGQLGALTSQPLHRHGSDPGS

[4] = biological target: Sodium-dependent noradrenaline transporter (Homo sapiens, UniProt P23975)
[5] = biological target: 5-hydroxytryptamine receptor 2B (Homo sapiens, UniProt P41595); format: functional, cell-based
Sequence of 5-hydroxytryptamine receptor 2B (P41595 whole entry): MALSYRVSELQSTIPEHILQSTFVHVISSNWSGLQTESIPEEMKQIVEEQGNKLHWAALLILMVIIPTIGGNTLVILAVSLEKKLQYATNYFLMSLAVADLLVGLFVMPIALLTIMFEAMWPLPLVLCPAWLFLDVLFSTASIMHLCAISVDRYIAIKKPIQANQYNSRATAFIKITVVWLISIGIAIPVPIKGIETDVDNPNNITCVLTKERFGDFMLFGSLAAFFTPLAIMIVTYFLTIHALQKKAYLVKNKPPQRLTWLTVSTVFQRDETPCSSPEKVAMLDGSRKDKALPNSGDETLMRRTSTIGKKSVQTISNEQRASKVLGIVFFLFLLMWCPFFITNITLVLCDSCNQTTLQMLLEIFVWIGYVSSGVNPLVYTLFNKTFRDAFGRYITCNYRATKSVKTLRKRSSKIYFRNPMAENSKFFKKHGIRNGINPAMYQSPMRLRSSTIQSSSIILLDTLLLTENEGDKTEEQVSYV

[6] = biological target: D(3) dopamine receptor (Homo sapiens, UniProt P35462)
Sequence of D(3) dopamine receptor (P35462 whole entry): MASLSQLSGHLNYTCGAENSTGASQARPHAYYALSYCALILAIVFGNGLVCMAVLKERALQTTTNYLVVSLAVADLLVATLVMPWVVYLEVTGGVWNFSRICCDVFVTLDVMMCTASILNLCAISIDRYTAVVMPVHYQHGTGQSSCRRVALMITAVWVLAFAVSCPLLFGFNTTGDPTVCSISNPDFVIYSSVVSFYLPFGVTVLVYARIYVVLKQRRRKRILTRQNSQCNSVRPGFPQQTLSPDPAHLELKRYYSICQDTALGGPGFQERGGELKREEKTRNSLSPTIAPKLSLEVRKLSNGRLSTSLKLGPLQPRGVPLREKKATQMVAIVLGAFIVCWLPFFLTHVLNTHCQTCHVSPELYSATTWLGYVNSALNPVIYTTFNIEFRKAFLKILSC

[7] = biological target: Delta-type opioid receptor (Homo sapiens, UniProt P41143)
Sequence of Delta-type opioid receptor (P41143 whole entry): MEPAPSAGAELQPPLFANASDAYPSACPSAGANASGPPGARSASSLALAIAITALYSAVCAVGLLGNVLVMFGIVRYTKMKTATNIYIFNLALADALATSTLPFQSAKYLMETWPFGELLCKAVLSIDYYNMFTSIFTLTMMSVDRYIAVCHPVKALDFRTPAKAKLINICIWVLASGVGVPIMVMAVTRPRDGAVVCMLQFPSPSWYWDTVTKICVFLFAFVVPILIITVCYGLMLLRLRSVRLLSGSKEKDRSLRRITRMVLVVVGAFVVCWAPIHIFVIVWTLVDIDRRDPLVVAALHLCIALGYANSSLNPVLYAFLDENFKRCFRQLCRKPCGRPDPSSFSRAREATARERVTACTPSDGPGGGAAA

[8] = biological target: T2, Cholecystokinin receptor type A (Homo sapiens, UniProt P32238)
T2 sequence (P32238 whole entry): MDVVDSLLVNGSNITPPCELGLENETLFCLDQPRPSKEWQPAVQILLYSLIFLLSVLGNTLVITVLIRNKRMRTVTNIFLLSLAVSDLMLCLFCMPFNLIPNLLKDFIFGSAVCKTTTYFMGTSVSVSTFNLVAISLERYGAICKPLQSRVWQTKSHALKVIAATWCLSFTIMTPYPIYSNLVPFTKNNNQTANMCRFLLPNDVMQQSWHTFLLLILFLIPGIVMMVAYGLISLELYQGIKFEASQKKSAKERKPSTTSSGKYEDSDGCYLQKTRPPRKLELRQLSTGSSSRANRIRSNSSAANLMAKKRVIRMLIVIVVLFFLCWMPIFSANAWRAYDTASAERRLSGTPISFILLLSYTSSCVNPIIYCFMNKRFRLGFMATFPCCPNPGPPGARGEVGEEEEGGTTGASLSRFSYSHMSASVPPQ

[9] = biological target: Neuronal acetylcholine receptor subunit alpha-4 (Homo sapiens, UniProt P43681)
[10] = biological target: T3, Alpha-2A adrenergic receptor (Homo sapiens, UniProt P08913); format: functional, cell-based
T3 sequence (P08913 whole entry): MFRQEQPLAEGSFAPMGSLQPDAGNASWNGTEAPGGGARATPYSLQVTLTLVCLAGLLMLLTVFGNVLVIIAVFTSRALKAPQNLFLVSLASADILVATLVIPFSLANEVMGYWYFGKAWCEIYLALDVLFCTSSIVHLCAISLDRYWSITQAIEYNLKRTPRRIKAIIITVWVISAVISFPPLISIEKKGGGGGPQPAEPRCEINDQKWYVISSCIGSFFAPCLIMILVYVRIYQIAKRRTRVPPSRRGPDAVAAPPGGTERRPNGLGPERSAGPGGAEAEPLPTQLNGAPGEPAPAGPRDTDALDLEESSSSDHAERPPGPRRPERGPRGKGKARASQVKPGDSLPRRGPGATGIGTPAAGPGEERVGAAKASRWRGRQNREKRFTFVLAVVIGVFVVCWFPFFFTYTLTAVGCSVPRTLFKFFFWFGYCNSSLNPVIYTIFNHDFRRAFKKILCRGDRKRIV

[11] = biological target: T4, Adenosine receptor A1 (Homo sapiens, UniProt P30542)
T4 sequence (P30542 whole entry): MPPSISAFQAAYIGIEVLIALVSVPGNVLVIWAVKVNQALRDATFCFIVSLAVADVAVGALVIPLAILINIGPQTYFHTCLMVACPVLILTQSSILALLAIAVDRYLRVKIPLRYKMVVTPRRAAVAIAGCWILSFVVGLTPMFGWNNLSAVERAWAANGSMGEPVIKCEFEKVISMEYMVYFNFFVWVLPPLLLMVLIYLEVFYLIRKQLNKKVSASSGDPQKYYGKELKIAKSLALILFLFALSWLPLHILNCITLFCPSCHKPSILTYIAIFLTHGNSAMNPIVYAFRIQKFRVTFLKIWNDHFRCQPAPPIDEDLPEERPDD

[12] = biological target: Bile salt export pump (Homo sapiens, UniProt O95342); format: functional
Sequence of Bile salt export pump (O95342 whole entry): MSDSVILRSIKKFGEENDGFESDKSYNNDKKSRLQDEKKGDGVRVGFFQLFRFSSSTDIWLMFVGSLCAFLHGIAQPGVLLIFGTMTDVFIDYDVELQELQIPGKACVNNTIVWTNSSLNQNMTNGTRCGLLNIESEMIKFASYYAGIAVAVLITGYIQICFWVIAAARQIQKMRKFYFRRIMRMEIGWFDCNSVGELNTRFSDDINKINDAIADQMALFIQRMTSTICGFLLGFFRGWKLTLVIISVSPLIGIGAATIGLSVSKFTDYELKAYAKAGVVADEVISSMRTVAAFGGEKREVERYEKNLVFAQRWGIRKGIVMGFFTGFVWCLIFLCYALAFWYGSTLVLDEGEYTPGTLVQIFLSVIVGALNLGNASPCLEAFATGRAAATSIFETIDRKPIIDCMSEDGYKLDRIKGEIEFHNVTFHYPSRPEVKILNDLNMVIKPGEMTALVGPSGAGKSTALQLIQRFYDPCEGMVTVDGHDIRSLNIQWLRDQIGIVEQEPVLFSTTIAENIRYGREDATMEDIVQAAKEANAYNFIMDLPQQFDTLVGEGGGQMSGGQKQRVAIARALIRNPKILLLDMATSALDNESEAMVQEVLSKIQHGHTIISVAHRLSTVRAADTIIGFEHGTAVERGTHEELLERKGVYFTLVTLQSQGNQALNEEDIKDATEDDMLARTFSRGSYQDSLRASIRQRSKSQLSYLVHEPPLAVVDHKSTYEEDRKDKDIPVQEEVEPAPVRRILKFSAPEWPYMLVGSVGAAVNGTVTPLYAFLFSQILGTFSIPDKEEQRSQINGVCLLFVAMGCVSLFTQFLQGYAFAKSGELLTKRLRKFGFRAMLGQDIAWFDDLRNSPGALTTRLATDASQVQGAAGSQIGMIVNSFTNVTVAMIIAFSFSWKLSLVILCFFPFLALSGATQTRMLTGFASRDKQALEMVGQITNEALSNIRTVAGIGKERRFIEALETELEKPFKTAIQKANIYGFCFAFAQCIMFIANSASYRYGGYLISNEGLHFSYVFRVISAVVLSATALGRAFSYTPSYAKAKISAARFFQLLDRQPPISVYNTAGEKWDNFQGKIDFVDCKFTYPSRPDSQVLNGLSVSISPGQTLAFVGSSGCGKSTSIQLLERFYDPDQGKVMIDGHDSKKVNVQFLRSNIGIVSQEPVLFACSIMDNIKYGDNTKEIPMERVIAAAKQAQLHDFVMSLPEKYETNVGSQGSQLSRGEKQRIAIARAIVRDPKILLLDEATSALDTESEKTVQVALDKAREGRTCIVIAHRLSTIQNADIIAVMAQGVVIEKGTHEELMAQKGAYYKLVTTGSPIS

[13] = biological target: Growth hormone secretagogue receptor type 1 (Homo sapiens, UniProt Q92847)
Sequence of Growth hormone secretagogue receptor type 1 (Q92847 whole entry): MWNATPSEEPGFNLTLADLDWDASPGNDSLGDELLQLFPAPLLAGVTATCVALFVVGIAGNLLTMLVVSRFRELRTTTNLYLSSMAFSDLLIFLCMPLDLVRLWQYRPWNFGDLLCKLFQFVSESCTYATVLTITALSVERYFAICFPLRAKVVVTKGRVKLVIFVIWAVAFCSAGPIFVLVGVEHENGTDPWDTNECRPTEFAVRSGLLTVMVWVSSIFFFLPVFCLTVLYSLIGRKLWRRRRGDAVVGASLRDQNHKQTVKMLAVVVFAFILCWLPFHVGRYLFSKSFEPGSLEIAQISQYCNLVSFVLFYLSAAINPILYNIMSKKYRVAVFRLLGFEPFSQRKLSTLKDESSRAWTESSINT

[14] = biological target: T5, 5-hydroxytryptamine receptor 3A (Homo sapiens, UniProt P46098); format: functional
T5 sequence (P46098 whole entry): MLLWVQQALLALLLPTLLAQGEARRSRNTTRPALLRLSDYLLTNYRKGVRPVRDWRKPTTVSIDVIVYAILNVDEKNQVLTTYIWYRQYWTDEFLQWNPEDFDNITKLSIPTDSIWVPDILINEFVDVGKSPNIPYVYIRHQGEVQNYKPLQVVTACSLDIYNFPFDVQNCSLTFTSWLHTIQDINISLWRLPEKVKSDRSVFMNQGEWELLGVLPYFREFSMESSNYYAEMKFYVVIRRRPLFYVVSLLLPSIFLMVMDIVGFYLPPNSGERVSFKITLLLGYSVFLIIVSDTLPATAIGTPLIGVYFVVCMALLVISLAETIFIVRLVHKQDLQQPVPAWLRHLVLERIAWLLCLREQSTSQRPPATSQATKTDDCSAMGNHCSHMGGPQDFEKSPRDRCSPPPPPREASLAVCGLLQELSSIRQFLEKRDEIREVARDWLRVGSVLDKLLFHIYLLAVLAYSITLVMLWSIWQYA
Also: assay procedure not described here.

Sequence of 3',5'-cyclic-AMP phosphodiesterase 4D (Q08499 whole entry): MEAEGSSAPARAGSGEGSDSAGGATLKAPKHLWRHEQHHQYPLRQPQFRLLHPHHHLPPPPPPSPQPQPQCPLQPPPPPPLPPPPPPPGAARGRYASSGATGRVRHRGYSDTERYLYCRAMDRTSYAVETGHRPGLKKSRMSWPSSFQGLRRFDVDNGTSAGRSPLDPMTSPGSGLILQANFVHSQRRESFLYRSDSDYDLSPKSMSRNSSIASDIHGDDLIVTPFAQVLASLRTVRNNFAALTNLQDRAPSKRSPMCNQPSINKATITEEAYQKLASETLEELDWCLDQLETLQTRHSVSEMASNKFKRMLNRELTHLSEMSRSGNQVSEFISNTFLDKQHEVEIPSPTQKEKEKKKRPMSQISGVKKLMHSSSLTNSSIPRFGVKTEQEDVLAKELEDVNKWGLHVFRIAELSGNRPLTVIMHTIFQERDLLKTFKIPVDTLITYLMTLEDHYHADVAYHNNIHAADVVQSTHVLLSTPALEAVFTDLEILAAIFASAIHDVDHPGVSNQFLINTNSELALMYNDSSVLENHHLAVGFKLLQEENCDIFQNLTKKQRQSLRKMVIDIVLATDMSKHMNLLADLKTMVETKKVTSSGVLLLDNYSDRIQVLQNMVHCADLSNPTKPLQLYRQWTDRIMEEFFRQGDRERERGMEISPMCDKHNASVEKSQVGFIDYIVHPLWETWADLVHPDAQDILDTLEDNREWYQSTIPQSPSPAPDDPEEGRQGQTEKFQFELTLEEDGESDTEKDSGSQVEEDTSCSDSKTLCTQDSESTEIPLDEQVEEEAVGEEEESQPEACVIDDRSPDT

**Q.** Which AC50 [1] does the source give for `NCC1(CC(=O)O)CCCCC1` [GABAPENTIN] here?
**A.** > 30 µM

**Q.** And the AC50 [2]?
**A.** > 30 µM

**Q.** And the AC50 [3]?
**A.** > 30 µM

**Q.** What about the AC50 [4] of the same molecule?
**A.** > 30 µM

**Q.** And the AC50 [5]?
**A.** > 30 µM

**Q.** And the AC50 [6]?
**A.** > 30 µM

**Q.** What about the AC50 [7] of the same molecule?
**A.** > 30 µM

**Q.** What about the AC50 [8] of the same molecule?
**A.** > 30 µM

**Q.** What about the AC50 [9] of the same molecule?
**A.** > 30 µM

**Q.** And the AC50 [10]?
**A.** > 30 µM

**Q.** And the AC50 [11]?
**A.** > 30 µM

**Q.** What about the AC50 [12] of the same molecule?
**A.** > 300 µM

**Q.** And the AC50 [13]?
**A.** > 30 µM

**Q.** And the AC50 [14]?
**A.** > 30 µM

**Q.** What does the source list for `COc1cc2c(cc1OC)C1CC(=O)C(CC(C)C)CN1CC2` (stereo not drawn) [TETRABENAZINE]?
**A.** AC50 [1]: > 30 µM; AC50 [2]: > 30 µM; AC50 [3]: > 30 µM; AC50 [4]: > 30 µM; AC50 [5]: 8.6 µM; AC50 [6]: > 30 µM; AC50 [7]: > 30 µM; AC50 [8]: > 30 µM; AC50 [9]: > 30 µM; AC50 [10]: 18 µM; AC50 [11]: > 30 µM; AC50 [12]: 74 µM; AC50 [13]: > 30 µM; AC50 [14]: > 30 µM

**Q.** Which results are given for `CCN(CC)CCn1c(=O)c(Cc2ccc(OC)cc2)nc2ccccc21` [CAROVERINE]?
**A.** AC50 [1]: 7.11 µM; AC50 [2]: 15.8 µM; AC50 [3]: 0.16 µM; AC50 [4]: > 30 µM; AC50 [5]: > 30 µM; AC50 [6]: 7.34 µM; AC50 [7]: 26 µM; AC50 [8]: > 30 µM; AC50 [9]: > 30 µM; AC50 [10]: > 30 µM; AC50 [11]: > 30 µM; AC50 [12]: > 300 µM; AC50 [13]: 6.47 µM; AC50 [14]: 29 µM

**Q.** What does the source list for `CC(C)(CO)c1cc2cc(NC(=O)C3(c4ccc5c(c4)OC(F)(F)O5)CC3)c(F)cc2n1C[C@@H](O)CO` [TEZACAFTOR]?
**A.** AC50 [1]: 8.7 µM; AC50 [2]: > 30 µM; AC50 [3]: > 30 µM; AC50 [4]: > 30 µM; AC50 [5]: > 10 µM; AC50 [6]: > 30 µM; AC50 [7]: > 30 µM; AC50 [8]: > 30 µM; AC50 [9]: > 30 µM; AC50 [10]: > 30 µM; AC50 [11]: > 30 µM; AC50 [12]: > 10 µM; AC50 [13]: > 30 µM; AC50 [14]: > 30 µM

**Q.** For `CN(C)CCOC(c1ccc(Cl)cc1)c1ccccn1` (stereo not drawn) [CARBINOXAMINE], which AC50 [1] is on record?
**A.** > 30 µM

**Q.** What about the AC50 [2] of the same molecule?
**A.** > 30 µM

**Q.** What about the AC50 [3] of the same molecule?
**A.** 1.3 µM

**Q.** What about the AC50 [4] of the same molecule?
**A.** 24 µM

**Q.** What about the AC50 [5] of the same molecule?
**A.** > 30 µM

**Q.** What about the AC50 [6] of the same molecule?
**A.** > 30 µM

**Q.** What about the AC50 [7] of the same molecule?
**A.** > 30 µM

**Q.** And the AC50 [8]?
**A.** > 30 µM

**Q.** What about the AC50 [9] of the same molecule?
**A.** > 30 µM

**Q.** What about the AC50 [10] of the same molecule?
**A.** > 30 µM

**Q.** And the AC50 [11]?
**A.** > 30 µM

**Q.** What about the AC50 [12] of the same molecule?
**A.** > 300 µM

**Q.** What about the AC50 [13] of the same molecule?
**A.** > 30 µM

**Q.** What about the AC50 [14] of the same molecule?
**A.** > 30 µM

**Q.** What does the source list for `CCOc1ccccc1OCCN[C@H](C)Cc1ccc(OC)c(S(N)(=O)=O)c1` [TAMSULOSIN]?
**A.** AC50 [1]: > 30 µM; AC50 [2]: > 30 µM; AC50 [3]: 6.95 µM; AC50 [4]: > 30 µM; AC50 [5]: 6.4 µM; AC50 [6]: 0.0032 µM; AC50 [7]: > 30 µM; AC50 [8]: > 30 µM; AC50 [9]: > 10 µM; AC50 [10]: 4.77 µM; AC50 [11]: > 30 µM; AC50 [12]: > 300 µM; AC50 [13]: > 30 µM; AC50 [14]: > 30 µM

**Q.** What does the source list for `Nc1c2c(nc3ccccc13)CCCC2O` (stereo not drawn) [VELNACRINE]?
**A.** AC50 [1]: > 30 µM; AC50 [2]: > 30 µM; AC50 [3]: 25 µM; AC50 [4]: > 30 µM; AC50 [5]: > 30 µM; AC50 [6]: > 30 µM; AC50 [7]: > 30 µM; AC50 [8]: > 30 µM; AC50 [9]: > 30 µM; AC50 [10]: > 30 µM; AC50 [11]: > 30 µM; AC50 [12]: > 300 µM; AC50 [13]: > 30 µM; AC50 [14]: > 30 µM
